Source: patent US20160108049A1 (TAKEDA Gmbh, priority 2011, published 2016)

Columns and labels:
human PDE5 = molecular target: T1, human PDE5 (Homo sapiens, UniProt O76074); experiment: Inhibition of PDE5 activity (platelet lysate, SPA assay); assay type: biochemical; details: 0.5 μM cGMP, read-out: PDE5 Inhibitory values measured as -logIC50 (converted)
T1 construct: from tissue; host or cells: human platelets from fresh donor blood (platelet lysate)
How it was run: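 SPA readout of [3H]cGMP hydrolysis (0.5 μM, 15 min, 37 °C after 5 min preincubation), stopped with yttrium silicate beads containing IBMX. Enzyme was lysate from human platelets, used at 10–20% substrate turnover, with PDE3 (motapizone 1 μM) and PDE2 (10 nM) blockers present. IC50 values fitted non-linearly from concentration-effect curves.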

PDE4B1 = molecular target: T2, PDE4B1 (Homo sapiens, UniProt Q07343); experiment: Inhibition of PDE4 activity (PDE4B1, SPA assay); assay type: biochemical; details: recombinant PDE4B1, 0.5 μM cAMP; read-out: PDE4B1 Inhibitory values measured as -logIC50 (converted)
T2 construct: made in house; host or cells: SF21 insect cells (baculovirus; virus made in SF9 cells, pCR-Bac vector)
T2 sequence (Q07343 whole entry): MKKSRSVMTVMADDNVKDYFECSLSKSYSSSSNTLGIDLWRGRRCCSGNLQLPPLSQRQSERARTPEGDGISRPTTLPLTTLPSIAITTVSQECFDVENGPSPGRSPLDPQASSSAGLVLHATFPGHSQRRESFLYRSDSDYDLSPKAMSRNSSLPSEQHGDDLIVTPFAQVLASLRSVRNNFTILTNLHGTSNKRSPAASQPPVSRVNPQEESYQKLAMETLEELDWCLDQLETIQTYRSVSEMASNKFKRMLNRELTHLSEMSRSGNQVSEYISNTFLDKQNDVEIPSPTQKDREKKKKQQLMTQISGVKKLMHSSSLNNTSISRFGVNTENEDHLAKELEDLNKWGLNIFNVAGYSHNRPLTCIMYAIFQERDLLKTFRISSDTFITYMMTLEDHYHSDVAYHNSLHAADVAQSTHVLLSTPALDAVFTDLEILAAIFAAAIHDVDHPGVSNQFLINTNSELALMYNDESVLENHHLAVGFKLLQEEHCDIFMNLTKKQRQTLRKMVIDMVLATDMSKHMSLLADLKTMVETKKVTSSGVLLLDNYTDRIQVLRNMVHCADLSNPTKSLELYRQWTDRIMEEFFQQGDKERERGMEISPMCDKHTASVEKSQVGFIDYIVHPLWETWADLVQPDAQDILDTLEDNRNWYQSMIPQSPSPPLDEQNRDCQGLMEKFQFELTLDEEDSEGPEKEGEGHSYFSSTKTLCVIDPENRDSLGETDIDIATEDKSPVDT
How it was run: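 Read-out is SPA yttrium silicate bead scintillation after IBMX-containing beads stop the reaction. Insect-cell (SF21) lysate enzyme hydrolysed 0.5 μM [3H]cAMP at pH 7.4 with 5 mM Mg2+ for 15 min after a 5 min 37 °C preincubation; IC50 fitted by non-linear regression.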

Compound | IC50 (human PDE5) [nM] | IC50 (PDE4B1) [nM]
COc1ccc(C2=NN(C3CCN(C(=O)[C@H](CCC(=O)N4CCCCC4)NC(=O)c4c[nH]c5c(-c6c(OCC7CC7)ccc7c6OCO7)ncnc45)CC3)C(=O)[C@@H]3CCCC[C@H]23)cc1OC [Example 79, 4-[5-(cyclopropylmethoxy)-1,3-benzodioxol-4-yl]-N-[(2S)-1-{4-[(4aS,8aR)-4-(3,4-dimethoxyphenyl)-1-oxo-4a,5,6,7,8,8a-hexahydrophthalazin-2(1H)-yl]piperidin-1-yl}-1,5-dioxo-5-(piperidin-1-yl)pentan-2-yl]-5H-pyrrolo[3,2-d]pyrimidine-7-carboxamide] | 1 to 10 | 1 to 10
COc1ccc(C2=NN(C3CCN(C(=O)[C@@H](Cc4ccc(N5CCCC5=O)cc4)NC(=O)c4c[nH]c5c(-c6c(OCC7CC7)ccc7c6OCO7)ncnc45)CC3)C(=O)[C@@H]3CCCC[C@H]23)cc1OC [Example 113, 4-[5-(cyclopropylmethoxy)-1,3-benzodioxol-4-yl]-N-{(2R)-1-{4-[(4aS,8aR)-4-(3,4-dimethoxyphenyl)-1-oxo-4a,5,6,7,8,8a-hexahydrophthalazin-2(1H)-yl]piperidin-1-yl}-1-oxo-3-[4-(2-oxopyrrolidin-1-yl)phenyl]propan-2-yl}-5H-pyrrolo[3,2-d]pyrimidine-7-carboxamide] | < 1 | < 1
COc1ccc(C2=NN(C3CCN(C(=O)[C@@H](Cc4ccc(F)cc4)NC(=O)c4c[nH]c5c(-c6c(OCC7CC7)ccc7c6OCO7)ncnc45)CC3)C(=O)C(C)(C)C2)cc1OC [Example 108, 4-[5-(cyclopropylmethoxy)-1,3-benzodioxol-4-yl]-N-[(2R)-1-{4-[3-(3,4-dimethoxyphenyl)-5,5-dimethyl-6-oxo-5,6-dihydropyridazin-1(4H)-yl]piperidin-1-yl}-3-(4-fluorophenyl)-1-oxopropan-2-yl]-5H-pyrrolo[3,2-d]pyrimidine-7-carboxamide] | < 1 | < 1
COc1ccc(C2=NN(C3CCN(C(=O)[C@@H](Cc4ccccc4)NC(=O)c4c[nH]c5c(-c6c(OCC7CC7)ccc7c6OCO7)ncnc45)CC3)C(=O)[C@H]3CCCC[C@@H]23)cc1OC [Example 45, 4-[5-(cyclopropylmethoxy)-1,3-benzodioxol-4-yl]-N-[(2R)-1-{4-[(4aR,8aS)-4-(3,4-dimethoxyphenyl)-1-oxo-4a,5,6,7,8,8a-hexahydrophthalazin-2(1H)-yl]piperidin-1-yl}-1-oxo-3-phenylpropan-2-yl]-5H-pyrrolo[3,2-d]pyrimidine-7-carboxamide] | 1 to 10 | > 10
COc1ccc(C2=NN(C3CCN(C(=O)[C@@H](Cc4ccc(Cl)cc4Cl)NC(=O)c4c[nH]c5c(-c6c(OCC7CC7)ccc7c6OCO7)ncnc45)CC3)C(=O)[C@@H]3CCCC[C@H]23)cc1OC [Example 48, 4-[5-(cyclopropylmethoxy)-1,3-benzodioxol-4-yl]-N-[(2R)-3-(2,4-dichlorophenyl)-1-{4-[(4aS,8aR)-4-(3,4-dimethoxyphenyl)-1-oxo-4a,5,6,7,8,8a-hexahydrophthalazin-2(1H)-yl]piperidin-1-yl}-1-oxopropan-2-yl]-5H-pyrrolo[3,2-d]pyrimidine-7-carboxamide] | < 1 | < 1
COc1ccc(C2=NN(C3CCN(C(=O)[C@@H](Cc4ccccc4Cl)NC(=O)c4c[nH]c5c(-c6c(OCC7CC7)ccc7c6OCO7)ncnc45)CC3)C(=O)[C@@H]3CCCC[C@H]23)cc1OC [Example 35, N-[(2R)-3-(2-chlorophenyl)-1-{4-[(4aS,8aR)-4-(3,4-dimethoxyphenyl)-1-oxo-4a,5,6,7,8,8a-hexahydrophthalazin-2(1H)-yl]piperidin-1-yl}-1-oxopropan-2-yl]-4-[5-(cyclopropylmethoxy)-1,3-benzodioxol-4-yl]-5H-pyrrolo[3,2-d]pyrimidine-7-carboxamide] | < 1 | < 1
COc1ccc(C2=NN(C3CCN(C(=O)[C@@H](Cc4ccc(O)cc4)NC(=O)c4c[nH]c5c(-c6c(OCC7CC7)ccc7c6OCO7)ncnc45)CC3)C(=O)[C@@H]3CCCC[C@H]23)cc1OC [Example 52, 4-[5-(cyclopropylmethoxy)-1,3-benzodioxol-4-yl]-N-[(2R)-1-{4-[(4aS,8aR)-4-(3,4-dimethoxyphenyl)-1-oxo-4a,5,6,7,8,8a-hexahydrophthalazin-2(1H)-yl]piperidin-1-yl}-3-(4-hydroxyphenyl)-1-oxopropan-2-yl]-5H-pyrrolo[3,2-d]pyrimidine-7-carboxamide] | < 1 | < 1
COc1ccc(C2=NN(C3CCN(C(=O)[C@@H](Cc4ccccc4)NC(=O)c4c[nH]c5c(-c6c(OCC7CC7)ccc7c6OCO7)ncnc45)CC3)C(=O)[C@@H]3CCCC[C@H]23)cc1OC [Example 31, 4-[5-(cyclopropylmethoxy)-1,3-benzodioxol-4-yl]-N-[(2R)-1-{4-[(4aS,8aR)-4-(3,4-dimethoxyphenyl)-1-oxo-4a,5,6,7,8,8a-hexahydrophthalazin-2(1H)-yl]piperidin-1-yl}-1-oxo-3-phenylpropan-2-yl]-5H-pyrrolo[3,2-d]pyrimidine-7-carboxamide] | < 1 | 1 to 10
COc1ccc(C2=NN(C3CCN(C(=O)[C@H](Cc4cccnc4)NC(=O)c4c[nH]c5c(-c6c(OCC7CC7)ccc7c6OCO7)ncnc45)CC3)C(=O)[C@@H]3CCCC[C@H]23)cc1OC [Example 43, 4-[5-(cyclopropylmethoxy)-1,3-benzodioxol-4-yl]-N-[(2S)-1-{4-[(4aS,8aR)-4-(3,4-dimethoxyphenyl)-1-oxo-4a,5,6,7,8,8a-hexahydrophthalazin-2(1H)-yl]piperidin-1-yl}-1-oxo-3-(pyridin-3-yl)propan-2-yl]-5H-pyrrolo[3,2-d]pyrimidine-7-carboxamide] | < 1 | < 1
COc1ccc(C2=NN(C3CCN(C(=O)[C@H](NC(=O)c4c[nH]c5c(-c6c(OCC7CC7)ccc7c6OCO7)ncnc45)C(C)C)CC3)C(=O)[C@@H]3CCCC[C@H]23)cc1OC [Example 119, 4-[5-(cyclopropylmethoxy)-1,3-benzodioxol-4-yl]-N-[(2R)-1-{4-[(4aS,8aR)-4-(3,4-dimethoxyphenyl)-1-oxo-4a,5,6,7,8,8a-hexahydrophthalazin-2(1H)-yl]piperidin-1-yl}-3-methyl-1-oxobutan-2-yl]-5H-pyrrolo[3,2-d]pyrimidine-7-carboxamide] | < 1 | < 1
COc1ccc(C2=NN(C3CCN(C(=O)[C@@H](Cc4ccc(F)c(F)c4)NC(=O)c4c(C)[nH]c5c(-c6c(OCC7CC7)ccc7c6OCO7)ncnc45)CC3)C(=O)[C@@H]3CCCC[C@H]23)cc1OC [Example 18, 4-[5-(cyclopropylmethoxy)-1,3-benzodioxol-4-yl]-N-[(2R)-3-(3,4-difluorophenyl)-1-{4-[(4aS,8aR)-4-(3,4-dimethoxyphenyl)-1-oxo-4a,5,6,7,8,8a-hexahydrophthalazin-2(1H)-yl]piperidin-1-yl}-1-oxopropan-2-yl]-6-methyl-5H-pyrrolo[3,2-d]pyrimidine-7-carboxamide] | 1 to 10 | < 1
COc1ccc(C2=NN(C3CCN(C(=O)[C@@H](NC(=O)c4c[nH]c5c(-c6c(OCC7CC7)ccc7c6OCO7)ncnc45)[C@@H](C)O)CC3)C(=O)[C@@H]3CCCC[C@H]23)cc1OC [Example 63, 4-[5-(cyclopropylmethoxy)-1,3-benzodioxol-4-yl]-N-[(2S,3R)-1-{4-[(4aS,8aR)-4-(3,4-dimethoxyphenyl)-1-oxo-4a,5,6,7,8,8a-hexahydrophthalazin-2(1H)-yl]piperidin-1-yl}-3-hydroxy-1-oxobutan-2-yl]-5H-pyrrolo[3,2-d]pyrimidine-7-carboxamide] | < 1 | < 1
COc1ccc(C2=NN(C3CCN(C(=O)[C@@H](CCC(=O)OCc4ccccc4)NC(=O)c4c[nH]c5c(-c6c(OCC7CC7)ccc7c6OCO7)ncnc45)CC3)C(=O)[C@@H]3CCCC[C@H]23)cc1OC [Example 100, Benzyl (4R)-4-[({4-[5-(cyclopropylmethoxy)-1,3-benzodioxol-4-yl]-5H-pyrrolo[3,2-d]pyrimidin-7-yl}carbonyl)amino]-5-{4-[(4aS,8aR)-4-(3,4-dimethoxyphenyl)-1-oxo-4a,5,6,7,8,8a-hexahydrophthalazin-2(1H)-yl]piperidin-1-yl}-5-oxopentanoate] | 1 to 10 | 1 to 10
